ChEMBL document CHEMBL1201862, “PubChem BioAssay data set” (2004)
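1) Cells in 96-well plates. 2) Compound, 48 h, 5 concentrations. 3) Linear interpolation between surrounding doses. 4) Unreached endpoint = highest concentration. Abbreviation: GI50, concentration required for 50% inhibition of growth.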 Active and inactive are the calls of the source. Cut-off read from the data, not from the text of the source: active = GI50 up to about 1.1 µM and inactive = higher. Where a SMILES comes first, the peptide text is derived from it. [ ]: non-standard residue; d: D form. The star is where a group is joined. Cbz = O=C(OCc1ccccc1)*; Aib = CC(C)(N)C(=O)O

Key:
Experiment in all cases: growth of human tumour cells (NCI), 48 h
RPMI-8226 = system: RPMI-8226
MCF7 = system: MCF7
HCT-116 = system: HCT-116
ACHN = system: ACHN
SF-295 = system: SF-295
COLO 205 = system: COLO 205
UO-31 = system: UO-31
K562 = system: K562
SK-OV-3 = system: SK-OV-3
PC-3 = system: PC-3
Hs-578T = system: Hs-578T
LOX IMVI = system: LOX IMVI
RXF 393 = system: RXF 393
SK-MEL-5 = system: SK-MEL-5
SNB-75 = system: SNB-75
SR = system: SR
TK-10 = system: TK-10
CCRF-CEM = system: CCRF-CEM
UACC-257 = system: UACC-257
Malme-3M = system: Malme-3M

Row | SMILES | GI50 (RPMI-8226) | GI50 (MCF7) | GI50 (HCT-116) | GI50 (ACHN) | GI50 (SF-295) | GI50 (COLO 205) | GI50 (UO-31) | GI50 (K562) | GI50 (SK-OV-3) | GI50 (PC-3) | GI50 (Hs-578T) | GI50 (LOX IMVI) | GI50 (RXF 393) | GI50 (SK-MEL-5) | GI50 (SNB-75) | GI50 (SR) | GI50 (TK-10) | GI50 (CCRF-CEM) | GI50 (UACC-257) | GI50 (Malme-3M)
1 | CCCCCCCCCCCCCCCCOC[C@@H](COC(c1ccccc1)(c1ccccc1)c1ccccc1)O[PH](=S)OC (some centres not stated) | 3.4 µM (inactive) | 7.43 µM (inactive) | 3.86 µM (inactive) | 15.7 µM (inactive) | 1.41 µM (inactive) | 17.9 µM (inactive) | 16.4 µM (inactive) | 16.4 µM (inactive) | 5.68 µM (inactive) | 5.32 µM (inactive) | 15.5 µM (inactive) | 2.98 µM (inactive) | 7.53 µM (inactive) | 4.81 µM (inactive) | 10.3 µM (inactive) | 2.33 µM (inactive) | 11.5 µM (inactive) | 11.7 µM (inactive) | 11.6 µM (inactive) | 
2 | N=C(N)N/N=C/c1c(-c2cccc([N+](=O)[O-])c2)nc2n1CCS2 | 34.9 µM (inactive) | 11 µM (inactive) | 20.5 µM (inactive) | 17.7 µM (inactive) | 26.2 µM (inactive) | 8.32 µM (inactive) | 15.5 µM (inactive) | 11.2 µM (inactive) |  | 16.9 µM (inactive) | 7.1 µM (inactive) | 16.6 µM (inactive) | 19.3 µM (inactive) | 14.8 µM (inactive) | 9.68 µM (inactive) | 12.7 µM (inactive) | 23.4 µM (inactive) | 22.2 µM (inactive) | 19.1 µM (inactive) | 18.9 µM (inactive)
3 | CCOC(=O)c1sc2nc(SC)nc3c2c1NCN3c1ccc2c(c1)OCCCO2 | > 100 µM (inactive) | > 100 µM (inactive) | 5.02 µM (inactive) | 32.1 µM (inactive) | 1.67 µM (inactive) |  | 37.9 µM (inactive) | > 100 µM (inactive) | 15.7 µM (inactive) | > 100 µM (inactive) | 2.57 µM (inactive) | > 100 µM (inactive) | 11.7 µM (inactive) | 12.2 µM (inactive) |  | > 100 µM (inactive) | 53.6 µM (inactive) | > 100 µM (inactive) | > 100 µM (inactive) | > 100 µM (inactive)
4 | COc1ccc2c(c1)CCc1cc(C(N)=O)c3nnnn3c1-2 | > 100 µM (inactive) | > 100 µM (inactive) | 67.1 µM (inactive) | 30.5 µM (inactive) | 44.1 µM (inactive) | > 100 µM (inactive) |  | > 96.6 µM (inactive) | 54.3 µM (inactive) | > 57.9 µM (inactive) | 0.408 µM (active) | > 58.1 µM (inactive) | 16.9 µM (inactive) | > 100 µM (inactive) |  | > 100 µM (inactive) | 8.13 µM (inactive) | > 50.1 µM (inactive) | 85.5 µM (inactive) | 18.2 µM (inactive)
5 | O=c1[nH]c(=O)n(Cc2ccccc2CO)cc1Sc1ccccc1 |  | 22.3 µM (inactive) | 25.3 µM (inactive) | 26.5 µM (inactive) | 30 µM (inactive) | 37.2 µM (inactive) | 7.4 µM (inactive) | 6.78 µM (inactive) | 42.4 µM (inactive) | 33 µM (inactive) | 23.1 µM (inactive) |  | 24.7 µM (inactive) | 10.1 µM (inactive) | 36.6 µM (inactive) | 25.4 µM (inactive) | 30.7 µM (inactive) | 28.7 µM (inactive) | 21.6 µM (inactive) | 21.4 µM (inactive)
6 | Cc1csc2c(=O)n(COCc3ccccc3)c(=O)[nH]c12 | > 100 µM (inactive) | 95.9 µM (inactive) | > 100 µM (inactive) | > 100 µM (inactive) | > 100 µM (inactive) | > 100 µM (inactive) | 89.5 µM (inactive) | > 100 µM (inactive) |  | > 100 µM (inactive) | 65 µM (inactive) | > 100 µM (inactive) | > 100 µM (inactive) | 91.2 µM (inactive) | > 100 µM (inactive) | > 100 µM (inactive) | > 100 µM (inactive) | > 100 µM (inactive) | > 100 µM (inactive) | > 100 µM (inactive)
7 | CC(C)(C)n1c(=O)[nH]c(=O)n1C(C)(C)C |  | > 100 µM (inactive) | > 100 µM (inactive) | > 100 µM (inactive) | > 100 µM (inactive) | > 100 µM (inactive) | > 100 µM (inactive) | > 100 µM (inactive) | > 100 µM (inactive) | > 100 µM (inactive) | > 100 µM (inactive) | > 100 µM (inactive) | > 100 µM (inactive) | > 100 µM (inactive) | > 100 µM (inactive) | > 100 µM (inactive) | > 100 µM (inactive) | > 100 µM (inactive) | > 100 µM (inactive) | > 100 µM (inactive)
8 | S=C1SC(c2ccc(Cl)cc2)(c2ccc(Cl)cc2)c2ccccc21 |  | 38.5 µM (inactive) | 24.7 µM (inactive) | > 100 µM (inactive) | 53.7 µM (inactive) | 80.5 µM (inactive) | > 100 µM (inactive) | 64.9 µM (inactive) | > 100 µM (inactive) | 58.6 µM (inactive) | > 100 µM (inactive) | 25.7 µM (inactive) | 56.9 µM (inactive) | 64 µM (inactive) | > 100 µM (inactive) | 20.4 µM (inactive) | > 100 µM (inactive) | 43.7 µM (inactive) | 31 µM (inactive) | > 100 µM (inactive)
9 | C/C(=C\CO)CC/C=C(\C)CNc1ccccc1 |  | 78.7 µM (inactive) | 54.5 µM (inactive) | > 100 µM (inactive) | 38.5 µM (inactive) | 41.2 µM (inactive) | 38.1 µM (inactive) | 28.6 µM (inactive) | > 100 µM (inactive) | 28.8 µM (inactive) | 29.8 µM (inactive) | 57.7 µM (inactive) | 48.1 µM (inactive) | 16 µM (inactive) | 0.0498 µM (active) | 34.3 µM (inactive) | 20.5 µM (inactive) |  | 27.3 µM (inactive) | 13.5 µM (inactive)
10 | O=C1NC(=O)C(COCc2ccccc2)C2=C1SCCC2 (configuration not stated) | > 100 µM (inactive) | > 100 µM (inactive) | > 100 µM (inactive) | > 100 µM (inactive) | > 100 µM (inactive) | > 100 µM (inactive) | > 100 µM (inactive) | > 100 µM (inactive) |  | > 100 µM (inactive) | > 100 µM (inactive) | > 100 µM (inactive) | > 100 µM (inactive) | > 100 µM (inactive) | > 100 µM (inactive) | > 100 µM (inactive) |  | > 100 µM (inactive) | > 100 µM (inactive) | > 100 µM (inactive)
11 | CCC(C)C(Nc1c2ccccc2nc2c(C(=O)NCCN(C)C)cccc12)C(=O)O (configuration not stated) | 28.8 µM (inactive) | 5.86 µM (inactive) | 4.28 µM (inactive) | 7.94 µM (inactive) | 12.3 µM (inactive) | 6.15 µM (inactive) | 8.83 µM (inactive) | 21.6 µM (inactive) | 22 µM (inactive) | 14 µM (inactive) | 18.4 µM (inactive) | 4.8 µM (inactive) |  | 15.7 µM (inactive) | 18 µM (inactive) | 46.6 µM (inactive) | 38.5 µM (inactive) | 24.3 µM (inactive) |  | 12.3 µM (inactive)
12 | CC(=O)Oc1ccc2cc(Oc3ccc(Cl)c(Cl)c3)c(=O)oc2c1 | 20.4 µM (inactive) | 34.8 µM (inactive) | 18.5 µM (inactive) | 25.8 µM (inactive) | 38.1 µM (inactive) |  | 15.5 µM (inactive) | 25.4 µM (inactive) |  | 24.7 µM (inactive) | 33 µM (inactive) | 19.7 µM (inactive) | 19.2 µM (inactive) | 20.3 µM (inactive) | 22 µM (inactive) | 35.3 µM (inactive) | 17.9 µM (inactive) | 18.3 µM (inactive) | 25.1 µM (inactive) | 29.2 µM (inactive)
13 | CCSc1nn(-c2c3ccccc3nc3ccccc23)c(=S)s1 | > 100 µM (inactive) | > 100 µM (inactive) | > 100 µM (inactive) | > 100 µM (inactive) | > 100 µM (inactive) | > 100 µM (inactive) | > 100 µM (inactive) | > 100 µM (inactive) | > 100 µM (inactive) | > 100 µM (inactive) | > 100 µM (inactive) | > 100 µM (inactive) | > 100 µM (inactive) | > 100 µM (inactive) | 61.9 µM (inactive) | > 100 µM (inactive) | > 100 µM (inactive) | > 100 µM (inactive) | > 100 µM (inactive) | 
14 | O=C(/C=C/c1cccc(Br)c1)c1cccs1 | 2.09 µM (inactive) | 3.44 µM (inactive) | 5.47 µM (inactive) | 20.1 µM (inactive) | 16.6 µM (inactive) | 21 µM (inactive) | 13 µM (inactive) | 3.13 µM (inactive) | 23.8 µM (inactive) | 17.5 µM (inactive) | 27.9 µM (inactive) |  |  | 16.9 µM (inactive) | 14.6 µM (inactive) | 10.1 µM (inactive) | 16.4 µM (inactive) | 4.23 µM (inactive) | 18.4 µM (inactive) | 22.1 µM (inactive)
15 | CC(C)(NC(=O)C(C)(C)NC(=O)OCc1ccccc1)C(=O)O (Cbz-[Aib]-[Aib]-OH) | > 100 µM (inactive) | > 100 µM (inactive) | > 100 µM (inactive) | > 100 µM (inactive) | > 100 µM (inactive) | > 10 µM (inactive) | > 100 µM (inactive) | > 100 µM (inactive) | > 100 µM (inactive) | > 100 µM (inactive) | > 100 µM (inactive) | > 100 µM (inactive) |  | > 100 µM (inactive) | > 100 µM (inactive) | > 100 µM (inactive) | > 100 µM (inactive) | > 100 µM (inactive) | > 100 µM (inactive) | > 100 µM (inactive)
